What all share (assay): ≥ marks a high value that may be exact or a test limit, other limits are often not marked, values filed in µg/mL are converted to µM
The subject of assay [1] is Lactococcus lactis AS1.1690.
Assay [2] has as its system Pseudomonas aeruginosa CGMCC 1.860.
Assay [3] has as its system Enterobacter cloacae CGMCC 1.58.
The test system of assay [4] is Escherichia coli AS1.349.
Assay [5] has as its system Enterococcus faecalis CGMCC 1.595.
For assay [6], the system named is Bacillus cereus AS1.126.
Assay [7] relates to Klebsiella pneumoniae subsp. pneumoniae CGMCC 1.176.
Assay [8] relates to Enterococcus faecium CGMCC 1.2334.
The test system of assay [9] is Acinetobacter baumannii CICC 22934.
Assay [10] relates to Proteus mirabilis CICC 22931.
The subject of assay [11] is Staphylococcus aureus AS1.72.
Assay [12] concerns Klebsiella aerogenes CGMCC 1.876.
Assay [13] deals with Pseudomonas aeruginosa ATCC 27853.
The subject of assay [14] is Escherichia coli ATCC 25922.
Assay [15] has as its system Klebsiella pneumoniae ATCC 700603.
In assay [16] the test system is Pseudomonas aeruginosa PA006.
In assay [17] the test system is Staphylococcus aureus ATCC 29313.
Assay [18] has as its system Salmonella enterica subsp. enterica serovar Typhimurium ATCC 14028.
Assay [19] concerns Pseudomonas aeruginosa Pa1-SA2.
For assay [20], the system named is Pseudomonas aeruginosa PAO1.
For assay [21], the system named is Pseudomonas aeruginosa Pa4-SA2.
In assay [22] the test system is Micrococcus luteus NBRC 12708.
Assay [23] relates to Pseudomonas aeruginosa NBRC 12582.
Assay [24] has as its system Staphylococcus aureus NBRC 12732.
The test system of assay [25] is Escherichia coli NBRC 14237.
For assay [26], the system named is Staphylococcus aureus ATCC 25923.
The subject of assay [27] is Nocardia asteroides 201118.
For assay [28], the system named is Candida glabrata 090902.
In assay [29] the test system is Psychrobacter faecalis X29.
Assay [30] relates to Enterococcus faecalis 981.
For assay [31], the system named is Candida glabrata CCM 8270.
Assay [32] concerns Candida albicans CCM 8186.
The subject of assay [33] is Bacillus subtilis.
Assay [34] has as its system Pseudomonas syringae pv. syringae EPS 94.
Assay [35] relates to Porphyromonas gingivalis ATCC 33277.
The subject of assay [36] is Staphylococcus aureus PCM 2054.
The subject of assay [37] is Staphylococcus epidermidis PCM 2118.
Assay [38] concerns Xanthomonas fragariae Xf349-9A.
Assay [39] concerns Fusobacterium nucleatum ATCC 10953.
Assay [40] relates to Xanthomonas arboricola pv. pruni CFBP 5563.
Assay [41] relates to Escherichia coli PCM 2057.
In assay [42] the test system is Candida tropicalis CCM 8264.
Assay [43] has as its system Xanthomonas campestris pv. Vesicatoria 2133-2.
Assay [44] deals with Pseudomonas syringae pv. actinidiae Psa3700.1.1.
Assay [45] concerns Candida parapsilosis CCM 8260.
The subject of assay [46] is Erwinia amylovora PMV 6076.
Assay [47] concerns Pseudomonas aeruginosa PCM 499.
Assay [48] relates to Candida krusei CCM 8271.
For assay [49], the system named is Bacillus cereus.

By MIC is commonly meant the lowest concentration found to suppress growth. Low readings indicate inhibition by little substance, high ones a need for much substance.

Values after ≈ are worked out from the molar mass of the structure shown.

Take `CC(C)C[C@H](NC(=O)[C@H](CCCCN)NC(=O)[C@H](CCCN=C(N)N)NC(=O)[C@H](Cc1cnc[nH]1)NC(=O)[C@H](C)NC(=O)[C@H](CCCN=C(N)N)NC(=O)[C@H](Cc1cnc[nH]1)NC(=O)[C@H](CC(C)C)NC(=O)[C@H](Cc1ccccc1)NC(=O)[C@H](CCCN=C(N)N)NC(=O)[C@H](CCCN=C(N)N)NC(=O)[C@H](CC(C)C)NC(=O)[C@H](Cc1cnc[nH]1)NC(=O)[C@H](CCCN=C(N)N)NC(=O)[C@H](CC(C)C)NC(=O)[C@@H](NC(=O)[C@H](CCCCN)NC(=O)[C@@H](N)CO)C(C)C)C(=O)O` [SKVLRHLRRFLHRAHRKL]: the minimum inhibitory concentration (MIC) is 3.13 µM (≈ 7.27 µg/mL) in assay [1]; ≥ 100 µM in [2]; ≥ 100 µM in assay [3]; ≥ 100 µM in assay [4]; 3.13 µM (≈ 7.27 µg/mL) in assay [5]; 1.56 µM (≈ 3.63 µg/mL) in [6]. Further, the minimal inhibitory concentration (MIC) was ≥ 100 µM in assay [7]; 3.13 µM (≈ 7.27 µg/mL) in [8]; ≥ 100 µM in [9]; ≥ 100 µM in [10]; 2.34 µM (≈ 5.44 µg/mL) in assay [11]; ≥ 100 µM in assay [12].
Regarding `CC[C@H](C)[C@H](NC(=O)[C@H](C)NC(=O)[C@H](Cc1cnc[nH]1)NC(=O)[C@H](C)NC(=O)[C@@H](NC(=O)[C@H](CC(C)C)NC(=O)[C@H](CC(=O)O)NC(=O)[C@H](CCCCN)NC(=O)CNC(=O)[C@H](C)NC(=O)CNC(=O)[C@H](CCCCN)NC(=O)[C@@H](NC(=O)[C@@H](NC(=O)[C@H](CC(=O)O)NC(=O)[C@@H](NC(=O)[C@@H](NC(=O)CN)C(C)C)[C@@H](C)CC)[C@@H](C)CC)[C@@H](C)CC)[C@@H](C)CC)C(=O)NCC(=O)N[C@@H](CCCCN)C(=O)N[C@@H](CC(C)C)C(=O)N[C@@H](C)C(=O)N[C@@H](CCC(=O)O)C(=O)N[C@@H](CCCCN)C(=O)N[C@H](C(N)=O)C(C)C` [GVIDIIKGAGKDLIAHAIGKLAEKV], the MIC in assay [13] is > 202 µM; in [14], 316 µM (≈ 800 µg/mL); in assay [15] it was > 316 µM; in [16], 6.32 µM (≈ 16 µg/mL); in assay [17], ≥ 316 µM; in [18] it was > 316 µM. For the same molecule, the minimal inhibitory concentration (MIC) in assay [19] was ≥ 50.6 µM; in assay [20], 202 µM (≈ 512 µg/mL); in assay [21], 25.3 µM (≈ 64 µg/mL).
For `CC[C@H](C)[C@H](NC(=O)[C@@H](N)Cc1ccccc1)C(=O)NCC(=O)N[C@@H](C)C(=O)N[C@@H](CC(C)C)C(=O)N[C@@H](CC(C)C)C(=O)NCC(=O)N1CCC[C@H]1C(=O)N[C@@H](CC(C)C)C(=O)N[C@@H](CC(C)C)C(=O)N[C@@H](CC(N)=O)C(=O)N[C@@H](CC(C)C)C(=O)N[C@@H](CC(C)C)C(=O)N[C@@H](CCCCN)C(N)=O` [FIGALLGPLLNLLK], the MIC in [22] was 12.5 µM (≈ 18.5 µg/mL); in assay [23] it was ≥ 50 µM; in assay [24] it was 12.5 µM (≈ 18.5 µg/mL); in [25], ≥ 50 µM.
For `CC[C@H](C)[C@H](NC(=O)[C@H](CC(C)C)NC(=O)CNC(=O)[C@@H]1CCCN1C(=O)[C@H](CC(C)C)NC(=O)[C@@H](N)Cc1ccccc1)C(=O)N[C@@H](CCCCN)C(=O)N[C@@H](C)C(=O)N[C@@H](C)C(=O)N[C@H](C(=O)NCC(=O)N[C@H](C(=O)NCC(=O)N[C@@H](CO)C(=O)N[C@H](C(=O)N[C@H](C(=O)N[C@@H](CC(C)C)C(=O)N[C@H]1CSSC[C@@H](C(=O)O)NC(=O)[C@H](CCCCN)NC(=O)[C@H](CCCCN)NC(=O)[C@H]([C@@H](C)O)NC(=O)[C@H]([C@@H](C)CC)NC(=O)[C@H](CCCCN)NC1=O)[C@@H](C)CC)[C@@H](C)O)C(C)C)C(C)C` [FLPGLIKAAVGVGSTILCKITKKC], the minimum inhibitory concentration (MIC) in [26] is 12.5 µM (≈ 30.7 µg/mL); in assay [27], 6.3 µM (≈ 15.5 µg/mL); in assay [28], 12.5 µM (≈ 30.7 µg/mL); in assay [29] it was ≥ 50 µM; in assay [30], 6.3 µM (≈ 15.5 µg/mL).
With `CC(C)[C@H](NC(=O)[C@H](Cc1c[nH]c2ccccc12)NC(=O)[C@H](Cc1ccccc1)NC(=O)[C@@H](NC(=O)[C@@H](NC(=O)[C@H](CCCCN)NC(=O)[C@@H](N)CCCCN)C(C)C)C(C)C)C(=O)N[C@@H](CCCCN)C(=O)N[C@@H](Cc1ccccc1)C(=O)N[C@@H](CCCCN)C(N)=O` [KKVVFWVKFK], the MIC in assay [31] was 11.9 µM (≈ 15.6 µg/mL); in [32], 5.96 µM (≈ 7.79 µg/mL); in [33] it was 5.96 µM (≈ 7.79 µg/mL); in assay [34] it was 8.8 µM (≈ 11.5 µg/mL); in [35], ≥ 95.5 µM; in assay [36], 19.1 µM (≈ 25 µg/mL). Moreover, the minimum inhibitory concentration (MIC) in assay [37] was found to be 5.96 µM (≈ 7.79 µg/mL); in assay [38], 4.38 µM (≈ 5.73 µg/mL); in assay [39], 11.9 µM (≈ 15.6 µg/mL); in [40], 1.13 µM (≈ 1.48 µg/mL); in assay [41], 5.96 µM (≈ 7.79 µg/mL); in assay [42] it was 1.53 µM (≈ 2 µg/mL). The minimal inhibitory concentration (MIC) in [43] came to 8.8 µM (≈ 11.5 µg/mL); in [44], 2.23 µM (≈ 2.91 µg/mL); in assay [45] it was 1.53 µM (≈ 2 µg/mL); in assay [46], 8.8 µM (≈ 11.5 µg/mL); in assay [47], 19.1 µM (≈ 25 µg/mL); in [48], 5.96 µM (≈ 7.79 µg/mL). For the same molecule, the MIC in [49] is ≥ 38.2 µM.

Source of the values: DBAASP.
